{"source": "paper PMC9503778", "about": "“Targeted Isolation of Antibiotic Brominated Alkaloids from the Marine Sponge Pseudoceratina durissima Using Virtual Screening and Molecular Networking” (Marine Drugs, 2022)", "key": {"[1]": {"experiment": "Cytotoxicity assay (CO-ADD)", "assay_type": "cell-based", "settings": "human embryonic kidney cells"}, "human red blood cells": {"system": "human red blood cells", "experiment": "Haemolysis assay (CO-ADD)", "assay_type": "cell-based"}, "[2]": {"system": "MRSA (G+) strain ATCC 43300", "experiment": "Antimicrobial growth inhibition (CO-ADD), MRSA", "assay_type": "cell-based, Staphylococcus aureus", "description": "(§1) Compounds 1−3 and 5−12 were assayed against a selection of medically important pathogenic microorganisms (MRSA, E. coli, K. pneumoniae, A. baumanii, P. aeruginosa, C. albicans, C. neoformans), Table 4. […] To the best of our knowledge this compound had not been tested against any drug resistant strain of Gram-positive bacterium until this study.\n(§2) The antimicrobial activity testing was performed by the Community for Antimicrobial Drug Discovery (CO-ADD). Compounds were assayed against a range of both Gram negative and Gram positive bacteria (see Supplementary Materials S3) including methicillin-resistant Staphylococcus aureus (MRSA) (G+), Escherichia coli (G-), Klebsiella pneumoniae (G-), Acinetobacter baumannii (G-), Pseudomonas aeruginosa (G-) together with two species of fungus (Candida albicans and Cryptococcus neoformans).\n(§3) S3. Antimicrobial activity testing methodology\n(§4) The compounds submitted to CO-ADD were evaluated in duplicate (n = 2) against seven microorganisms (five bacteria and two fungi) at a concentration of 32 µg/mL in a 384-well, non-binding surface plate (NBS) for each bacterial/fungal strain, keeping the final DMSO concentration to a maximum of 1% DMSO. All bacteria were cultured in cation-adjusted Mueller-Hinton broth (CAMHB) at 37 °C overnight. A sample of each culture was then diluted 40-fold in fresh broth and incubated at 37 °C for 1.5-3 h. The resultant mid-log phase cultures were diluted (CFU/mL measured by OD600), then added to each well of the compound containing plates, giving a cell density of 5x10^5 CFU/mL and a total volume of 50 µL. All the plates were covered and incubated at 37 °C for 18 h without shaking. […] Inhibition of bacterial growth was determined measuring absorbance at 600 nm (OD600) using a Tecan M1000 Pro mon-ochromator plate reader. […]\n(§5) 2 h. The absorbance was measured using a Biotek Synergy HTX plate reader. The percentage of growth inhibition was calculated for each well, using negative control (medium only) and positive control (bacteria without inhibitors) on the same plate as the references. The significance of inhibition values was determined by modified Z-scores, calculated using the median and MAD of the samples (no controls) on the same plate. Samples with inhibition value above 80% and Z-score above 2.5 for either replicate (n = 2 on different plates) were classed as actives.\n(§6) Colistin and vancomycin were used as positive bacterial inhibitor standards for Gram-negative and Gram-positive bac-teria, respectively. Fluconazole was used as a positive fungal inhibitor standard for C. albicans and C. neoformans. The antibiotics were provided in four concentrations, with two above and two below its MIC value, and plated into the first eight wells of column 23 of the 384-well NBS plates. The quality control (QC) of the assays was determined by the antimicrobial controls and the Z’-factor (using positive and negative controls). Each plate was deemed to fulfil the qual- […]\n(§7) full growth inhibition at their highest concentration, and no growth inhibition at their lowest concentration. The seven […]\n(§8) test microorganisms were Staphylococcus aureus MRSA (ATCC 43300), Escherichia coli (ATCC 25922), Klebsiella pneu-moniae (ATCC 700603), Acinetobacter baumanii (ATCC19606), Pseudomonas aeruginosa (ATCC 27853), Candida albicans (ATCC 90028) and Cryptococcus neoformans var. grubii (H99; ATCC 208821).\n(§9) S4. Anthelmintic activity testing methodology\n(§10) Dose-response evaluations were carried out to estimate the half-maximal inhibitory concentrations (IC50 values) for compounds against Haemonchus contortus (Haecon-5 strain) exsheathed third-stage larvae (xL3s). H. contortus were maintained in experimental sheep and procured in accordance with the institutional animal ethics guidelines and the regulations of Australia (permit no. 1714374; University of Melbourne). Immediately prior to use, third-stage larvae (L3s) were exsheathed and sterilised by incubation in 0.15% (v/v) bleach at 38 °C for 20 min, followed by washes in […]"}, "[3]": {"system": "E. Coli (G-) strain ATCC 25922", "experiment": "Antimicrobial growth inhibition (CO-ADD), E. coli", "assay_type": "cell-based, Escherichia coli", "description": "as §1, §2, §3, §4, §5, §6, §7, §8, §9, §10"}, "[4]": {"system": "K. pneumoniae (G-) strain ATCC 700603", "experiment": "Antimicrobial growth inhibition (CO-ADD), K. pneumoniae", "assay_type": "cell-based, Klebsiella pneumoniae", "description": "as §1, §2, §3, §4, §5, §6, §7, §8, §9, §10"}, "[5]": {"system": "A. baumannii (G-) strain ATCC 19606", "experiment": "Antimicrobial growth inhibition (CO-ADD), A. baumannii", "assay_type": "cell-based, Acinetobacter baumannii", "description": "as §1, §2, §3, §4, §5, §6, §7, §8, §9, §10"}, "[6]": {"system": "C. neoformans var. grubii strain ATCC 208821", "experiment": "Antimicrobial growth inhibition (CO-ADD), C. neoformans", "assay_type": "cell-based, Cryptococcus neoformans", "description": "as §1, §2, §3\nThe compounds submitted to CO-ADD were evaluated in duplicate (n = 2) against seven microorganisms (five bacteria and two fungi) at a concentration of 32 µg/mL in a 384-well, non-binding surface plate (NBS) for each bacterial/fungal strain, keeping the final DMSO concentration to a maximum of 1% DMSO. All bacteria were cultured in cation-adjusted […]\nFungal strains were cultured for 3 days on Yeast Extract-Peptone Dextrose (YPD) agar at 30 °C. A yeast suspension of 1 x 10^6 to 5 x 10^6 CFU/mL (as determined by OD530) was prepared from five colonies. The suspension was subsequently diluted and added to each well of the compound-containing plates giving a final cell density of fungi suspension of 2.5 x 10^3 CFU/mL and a total volume of 50 µL. All plates were covered and incubated at 35 °C for 24 h without shaking. […]\nas §5, with “Growth inhibition of C. albicans was determined measuring absorbance at 530 nm (OD530), while the growth inhibition of C. neoformans was determined measuring the difference in absorbance between 600 and 570 nm (OD600-570), after the addition of resazurin (0.001% final concentration) and incubation at 35 °C for an additional 2 h.” for “2 h.”\nas §6, §7, §8, §9\nDose-response evaluations were carried out to estimate the half-maximal inhibitory concentrations (IC50 values) for compounds against Haemonchus contortus (Haecon-5 strain) exsheathed third-stage larvae (xL3s). H. contortus were maintained in experimental sheep and procured in accordance with the institutional animal ethics guidelines and the […]"}, "[7]": {"settings": "32 µg/mL, duplicate (n = 2) values"}}, "note": "Where “and” joins values, the source holds several entries; their conditions need not be identical. Identical values can stand only once."}
{"molecule": "COC1=C(Br)[C@H](O)[C@@]2(C=C1Br)CC(C(=O)NCCCOc1c(Br)cc(CCN)cc1Br)=NO2", "note": "[Compound 11, araplysillin I]", "values": [{"measurement": "CC50", "setting": "[1]", "value": "> 32", "unit": "mg/L"}, {"measurement": "Haemolysis (HC10)", "setting": "human red blood cells", "value": ">32", "unit": "µg/mL"}, {"measurement": "% inhibition MRSA", "setting": "[2]; [7]", "value": 5.7, "unit": "%"}, {"measurement": "inhibition at 32 µg/mL", "setting": "[2]; Staphylococcus aureus, read-out: % inhibition MRSA, 32 µg/mL, duplicate (n = 2) values", "value": 11.3, "unit": "%"}, {"measurement": "MIC", "setting": "[2]; Staphylococcus aureus, ATCC 43300, MIC = concentration at which growth inhibited by ≥80%, range 0.25−32 µg/mL, read-out: MIC MRSA", "value": "> 32", "unit": "mg/L"}, {"measurement": "% inhibition E. coli", "setting": "[3]; [7]", "value": 8.5, "unit": "%"}, {"measurement": "inhibition at 32 µg/mL", "setting": "[3]; Escherichia coli, ATCC25922, read-out: % inhibition E. coli, 32 µg/mL, duplicate (n = 2) values", "value": 15.9, "unit": "%"}, {"measurement": "MIC", "setting": "[3]; Escherichia coli, ATCC25922, ATCC 25922, MIC = concentration at which growth inhibited by ≥80%, read-out: MIC E. coli", "value": "> 32", "unit": "mg/L"}, {"measurement": "% inhibition K. pneumoniae", "setting": "[4]; [7]", "value": 17.0, "unit": "%"}, {"measurement": "inhibition at 32 µg/mL", "setting": "[4]; Klebsiella pneumoniae, ATCC700603, read-out: % inhibition K. pneumoniae, 32 µg/mL, duplicate (n = 2) values", "value": 12.2, "unit": "%"}, {"measurement": "MIC", "setting": "[4]; Klebsiella pneumoniae, ATCC700603, ATCC 700603, read-out: MIC K. pneumoniae", "value": "> 32", "unit": "mg/L"}, {"measurement": "% inhibition A. baumannii", "setting": "[5]; [7]", "value": "3.4% and 7.3%"}, {"measurement": "MIC", "setting": "[5]; Acinetobacter baumannii, ATCC19606, ATCC 19606, read-out: MIC A. baumannii", "value": "> 32", "unit": "mg/L"}, {"measurement": "% inhibition C. neoformans", "setting": "[6]; [7]", "value": 7.8, "unit": "%"}, {"measurement": "inhibition at 32 µg/mL", "setting": "[6]; Cryptococcus neoformans, ATCC208821, read-out: % inhibition C. neoformans, 32 µg/mL, duplicate (n = 2) values", "value": 7.6, "unit": "%"}]}
